The values below come from ChEMBL document CHEMBL1140560, “Potent, selective spiropyrrolidine pyrimidinetrione inhibitors of MMP-13” (Bioorg Med Chem Lett, 2007).

Several values for one entry are separate records, joined by “and”; a condition that tells them apart may be missing. Identical values can stand only once.

Series [1] concerns the target T1, Collagenase 3 (Homo sapiens, UniProt P45452). As to the kind of experiment: Inhibition of MMP13.
Series [2] relates to Rattus norvegicus. As to the kind of experiment: Toxicity in rat assessed as induction of fibroplasia at 300 mg/kg, bid. Type of series: organism-based. Further details: dose 300 mg/kg. The settings on record: in vivo.
Series [3] in a line: Half life in rat. It counts as ADME, organism-based. The note with it: in vivo.
A further series has as its system Hamster. Briefly: Inhibition of human MMP13-induced cartilage damage in hamster at 10 mg/kg, po. Type of series: functional. The note with it: Cricetinae.
Series [4] in a line: Cmax in rat at 300 mg/kg, bid. Further details: dose 300 mg/kg. The settings on record: in vivo. It counts as ADME, organism-based.
The nature of series [5]: Cmax in rat at 800 mg/kg, bid. Type of series: ADME, organism-based. More on the design: dose 800 mg/kg. The settings on record: in vivo.
Series [6] relates to Rattus norvegicus. Briefly: Toxicity in rat assessed as induction of fibroplasia at 800 mg/kg, bid. More on the design: dose 800 mg/kg. Type of series: organism-based. The note with it: in vivo.
Series [7] has as its target T1, Collagenase 3. Briefly: Inhibition of MMP13-mediated bovine nasal cartilage degradation assessed as hydroxyprole release. Type of series: functional, tissue-based.
Series [8] has as its system Rattus norvegicus. As to the kind of experiment: Toxicity in rat assessed as induction of fibroplasia at 30 mg/kg, bid. Type of series: organism-based. Further details: dose 30 mg/kg. The settings on record: in vivo.
A short description of series [9]: Volume of distribution at steady state in rat. The note with it: in vivo, read-out: Vdss. It counts as ADME, organism-based.
The nature of series [10]: plasma Clearance in rat. It counts as ADME, organism-based.
Series [11] concerns Rattus norvegicus. Briefly: Toxicity in rat assessed as induction of fibroplasia at 100 mg/kg, bid. The note with it: in vivo. Type of series: organism-based. More on the design: dose 100 mg/kg.
The nature of series [12]: Chemical stability assessed as half life in phosphate buffer saline at pH 7.2. Type of series: physicochemical. The settings on record: phosphate buffered saline.

The term IC50 denotes the concentration at which inhibition is half-maximal. Consider `O=C1NC(=O)C2(CCCN2c2ccc(Oc3ccc(F)cc3)nc2)C(=O)N1`, for which the IC50 against Collagenase 3 [1] was 1.6 nM and 1.57 nM.

The molecule `CCOCCC1(Oc2ccc(Oc3ccc(F)cc3)nc2)C(=O)NC(=O)NC1=O` registered an IC50 at Collagenase 3 [1] of 8.9 nM.

For `N#Cc1ccc(-c2coc(-c3ccc(Oc4ccc(N5CCCC56C(=O)NC(=O)NC6=O)cn4)cc3)n2)cc1`, the IC50 at Collagenase 3 [1] is 0.05 nM.

Consider `O=C1NC(=O)C2(CCCC(=O)N2c2ccc(Oc3ccc(F)cc3)nc2)C(=O)N1`, for which, on Collagenase 3 [1], the midpoint of inhibition, the IC50, lay at 11.7 nM.

The half-life is how long it takes for the measured level to halve. The term inhibition in vivo denotes the relative decrease from the control value, in per cent. A lower inhibition in vivo goes with little suppression. As a reminder, the Cmax is the peak of the concentration-time curve. As usually defined, the clearance is a measure of how efficiently the substance is removed, as volume per time. A low value points to inefficient removal. `O=C1NC(=O)C2(CCCN2c2ccc(Oc3ccc(-c4nc(-c5ccc(F)cc5)co4)cc3)nc2)C(=O)N1`: the Activity result with Rattus norvegicus [2] is listed as “Toxic”; with Rattus norvegicus [6] it was “Toxic”; in the series with Rattus norvegicus [8], “Non-toxic”; in the series on Rattus norvegicus [11], “Non-toxic”. This molecule also showed a half-life in series [3] of 270 min. In addition, the inhibition in vivo at 10 mg/kg in the series on Hamster was above 80%. Besides, the Cmax in [4] amounted to 63 µg/mL; in [5], 52 µg/mL. Further, the figures for the IC50 on Collagenase 3 [7] and against Collagenase 3 [1] were 12 nM and 0.12 nM, respectively. The Vd in [9] was 1.3 L/kg. In series [10], this molecule came in with a clearance of 3.9 mL/min/kg.

On to `O=C1NC(=O)C2(CNC(=O)N2c2ccc(Oc3ccc(F)cc3)nc2)C(=O)N1`, for which, on Collagenase 3 [1], half-maximal inhibition (IC50) was put at 15.1 nM.

On to `CCOCCC1(Oc2ccc(Oc3ccc(-c4nc(-c5ccc(C#N)cc5)co4)cc3)cc2)C(=O)NC(=O)NC1=O`, for which it took 0.43 nM to reach half-maximal inhibition on Collagenase 3 [1] (IC50).

On to `O=C1NC(=O)C2(CCS(=O)(=O)N2c2ccc(Oc3ccc(F)cc3)nc2)C(=O)N1`, for which the half-life in series [12] is 1.1 days. Also, the IC50 on Collagenase 3 [1] amounted to 138 nM.

On to `N#Cc1cccc(-c2coc(-c3ccc(Oc4ccc(N5CCCC56C(=O)NC(=O)NC6=O)cn4)cc3)n2)c1`, for which, on Collagenase 3 [1], the IC50 worked out at 0.11 nM.

`CCOCCC1(Oc2ccc(Oc3ccc(-c4nc(-c5cccc(F)c5)co4)cc3)cc2)C(=O)NC(=O)NC1=O` had an IC50 on Collagenase 3 [1] of 0.35 nM.

For the molecule `CCOCCC1(Oc2ccc(Oc3ccc(-c4nc5ccc(Cl)cc5[nH]4)cc3)cc2)C(=O)NC(=O)NC1=O`, on Collagenase 3 [1], the IC50 worked out at 0.96 nM.

On Collagenase 3 [1], `CCOCCC1(Oc2ccc(Oc3ccc(F)cc3)cc2)C(=O)NC(=O)NC1=O` gave an IC50 of 0.6 nM.

Take `O=C1NC(=O)C2(CCCN2c2ccc(Oc3ccc(-c4nc5ccc(Cl)cc5[nH]4)cc3)nc2)C(=O)N1`: the IC50 against Collagenase 3 [1] came out at 0.1 nM.

In turn, `O=C1NC(=O)C2(CCCN2c2ccc(Oc3ccc(-c4nc(-c5cccc(F)c5)co4)cc3)nc2)C(=O)N1` showed an IC50 on Collagenase 3 [1] of 0.09 nM.

Turning to `CCOCCC1(Oc2ccc(Oc3ccc(-c4nc5ccc(F)cc5[nH]4)cc3)cc2)C(=O)NC(=O)NC1=O`, the IC50 against Collagenase 3 [1] came out at 0.4 nM.

In turn, `O=C1NC(=O)C2(CCCN2c2ccc(Oc3ccc(-c4nc(-c5ccccc5F)co4)cc3)nc2)C(=O)N1` registered an IC50 against Collagenase 3 [1] of 0.16 nM.

For the molecule `O=C1NC(=O)C2(CCCN2c2ccc(Oc3ccc(-c4nc5ccc(F)cc5[nH]4)cc3)nc2)C(=O)N1`, half-maximal inhibition on Collagenase 3 [1] (IC50) was put at 0.08 nM.

Take `O=C1NC(=O)C2(CCC(=O)N2c2ccc(Oc3ccc(F)cc3)nc2)C(=O)N1`: the half-life in series [12] was 3.8 days. Besides, the IC50 at Collagenase 3 [1] was 3.49 nM.

With `CC1(C)CC2(C(=O)NC(=O)NC2=O)N(c2ccc(Oc3ccc(F)cc3)nc2)C1=O`, the half-life in series [12] was 2.8 days. This molecule returned an IC50 on Collagenase 3 [1] of 7.33 nM.

`O=C1NC(=O)C2(CCCN2c2ccc(Oc3ccc(-c4nc5ccccc5[nH]4)cc3)nc2)C(=O)N1` showed an IC50 against Collagenase 3 [1] of 0.11 nM.

In the case of `CCOCCC1(Nc2ccc(Oc3ccc(F)cc3)nc2)C(=O)NC(=O)NC1=O`, the IC50 on Collagenase 3 [1] was 2.9 nM.

In the case of `O=C1NC(=O)C2(CCCN2c2ccc(Oc3ccc(Br)cc3)nc2)C(=O)N1`, the half-life in [12] was above 1000 days. Also, the midpoint of inhibition on Collagenase 3 [1], the IC50, lay at 0.6 nM.

Take `CCOCCC1(Oc2ccc(Oc3ccc(-c4nc5ccccc5[nH]4)cc3)cc2)C(=O)NC(=O)NC1=O`: the IC50 on Collagenase 3 [1] is 0.49 nM.

At Collagenase 3 [1], `CCOCCC1(Oc2ccc(Oc3ccc(-c4nc(-c5cccc(C#N)c5)co4)cc3)cc2)C(=O)NC(=O)NC1=O` gave an IC50 of 0.52 nM.

Take `CN1CC2(C(=O)NC(=O)NC2=O)N(c2ccc(Oc3ccc(F)cc3)nc2)C1=O`: half-maximal inhibition against Collagenase 3 [1] (IC50) was put at 12 nM.
